Source: patent publication US20240216407A1, “NOVEL POLYPHENOL COMPOUND” (NABOCUL COSMETICS CO., LTD., priority 2021, published 2024)

Test system: collagen gene (COL1A1 gene)
Assay: Promotion of collagen gene (COL1A1) mRNA expression in HaCaT cells, real-time PCR (QPCR)
Format: cell-based, human
Conditions: for increase of the expression level of the collagen gene (COL1A1 mRNA) compared to the control: 24 hours culture
Protocol: The OLANDU obtained in Example 2 was used to examine the effect of promoting the expression of collagen gene (COL1A1 gene) in a HaCaT cell that is a human epidermis-derived keratinocyte cell line.
First, the HaCaT cells were cultured in a DMEM medium (containing 10% FBS, 100 U/mL penicillin and […] streptomycin) in the presence of 5% CO2 at 37° C. and saturated humidity. Next, the HaCaT cells adjusted to a cell concentration of 5×10^5 cells/mL were seeded in each well of a 6-well cell culture plate and cultured in a CO2 incubator (5% CO2, 37° C.) for 24 hours. Thereafter, the OLANDU isolated in Example 2 was added to each well to provide a final concentration different from each other. Specifically, the final concentrations of OLANDU in the HaCaT cell culture medium were 1 μM, 5 μM, 10 μM, 50 μM and 100 μM, respectively. A well to which the OLANDU had not been added was used as a control (0 μM). After addition, they were subjected to culture for 24 hours.
After completion of the culture, the HaCaT cells were collected from each well, and total RNA was extracted with an RNA extraction reagent (RNAzol®, a product available from Molecular Research Center, Inc.). The concentration of total RNA obtained by extraction was confirmed with an ultratrace spectrophotometer (NanoDrop; a product available from Thermo Fisher Scientific). To this total RNA were added an oligo dT primer, a dNTP Mix, a 5×1st strand buffer, an RNase inhibitor, DTT and an M-MLV reverse transcriptase to synthesize cDNA from the total RNA. This cDNA was subjected to real-time PCR (QPCR) to measure the expression level of the collagen gene.
QPCR was performed with a commercially available QPCR reagent kit and QPCR measurement device (LightCycler® 480; a product available from Roche Diagnostics K. K.), and the detection was performed with SYBR® Green that is a double-stranded DNA-binding fluorescent dye. The COL1A1 gene encoding the α1 chain of type I collagen was selected as a target gene, and the primers of SEQ ID NOs: 1 and 2 shown in Table 1 below were used as QPCR primers. […]

SMILES: COc1ccc(/C=C/C(=O)OC[C@H]2O[C@H](OC(=O)c3cc(O)c(O)c(O)c3)[C@H](O)[C@@H](O)[C@@H]2O)cc1O [OLANDU]
- increase of the expression level of the collagen gene (COL1A1 mRNA) compared to the control (OLANDU 1 μM, control = 100): approximately two-fold
- increase of the expression level of the collagen gene (COL1A1 mRNA) compared to the control (OLANDU 10 μM, control = 100, highest expression-promoting action): more than three-fold
- expression level of the collagen gene (COL1A1 mRNA) compared to the control without OLANDU (OLANDU 1, 5, 10, 50 and 100 μM, 24 hours culture (FIG. 11)): greatly increased the expression level of the collagen gene
